Assay results from patent publication US10314838B2, “Compositions of buprenorphine and μ antagonists” (priority 2011, dated 2019).
Where two headings read alike, the source gives them in different places.

Key:
[1] = Plasma Cmax in patients (LC/MS/MS); conditions: human, 8 mg
Method: Samples were analyzed using a 50 μL aliquot volume and a protein-precipitation extraction procedure followed by liquid chromatography/tandem mass spectrometry (LC/MS/MS).
Samples were analyzed using a 400 μL aliquot volume and a solid-phase extraction procedure followed by liquid chromatography/tandem mass spectrometry (LC/MS/MS).

[2] = test system: NAc-sh dopamine and 5-HIAA; assay: NAc-sh dopamine and 5-HIAA in WKY rats undergoing forced swim test; assay type: in vivo, rat; conditions: highest dose of Compound 1, buprenorphine 0.1 mg/kg, WKY rats in FST
Method: FIG. 6: The effect of Compound-1 on dopamine efflux in WKY rats undergoing forced swim test after treatment with Buprenorphine (0.1 mg/kg).
FIG. 7: The efflux of Compound-1 on 5-Hydroxyindoleacetic acid (5-HIAA) release in WKY rats undergoing the forced swim test after treatment with Buprenorphine (0.1 mg/kg).

[3] = Rat plasma Cmax of antagonists given with buprenorphine; conditions: male, sc
Method: Male rats weighing between 300-400 grams, the same weight range used in the microdialysis studies, were used for these PK experiments. […] Sample of blood were collected at 5, 15, 30, 60 and 120 minutes post dosing. […] The collection tubes were inverted 10-15 times and then held on ice prior to centrifugation.

human μ opioid receptor = target: T1, human μ opioid receptor (Homo sapiens, UniProt P35372); assay: biochemical
T1 construct: expressed in transfected cells; membranes used
Method: Other functional assays could also be used based on cAMP or other downstream end-points following receptor activation; however the GTPγS is the preferred approach. […] Since the AAnAI is based on Cmax it can be calculated for any route of administration for the combination.
These values were determined using the GTPγS functional assay.
The [^35S]GTPγS assay measures the functional properties of a compound by quantifying the level of G-protein activation following agonist binding in studies using stably transfected cells, and is considered to be a measure of the efficacy of a compound. Membranes from CHO (Chinese Hamster Ovary) cells that stably expressed the cloned human μ opioid receptor were used in the experiments. […] The assay buffer consisted of 50 mM Tris-HCl, pH 7.4, 3 mM MgCl2, 0.2 mM EGTA, 3 μM GDP, and 100 mM NaCl. The final concentration of [35S]GTPγS was 0.080 nM. Nonspecific binding was measured by inclusion of 10 μM GTPγS. Binding was initiated by the addition of the membranes. After an incubation of 60 min at 30° C., the samples were filtered through Schleicher & Schuell No. 32 glass fiber filters. The filters were washed three times with cold 50 mM Tris-HCl, pH 7.5, and were counted in 2 mL of Ecoscint scintillation fluid.

[4] = test system: dopamine efflux in the Nucleus Accumbens shell (NAc-sh); assay: In vivo microdialysis, buprenorphine-induced dopamine efflux; conditions: antagonist plus buprenorphine 0.1 mg/kg SC
Method: Experiments were conducted in rats to assess the ability of opioid antagonists to modulate buprenorphine-induced dopamine efflux in the Nucleus Accumbens shell (NAc-sh) region of the mesolimbic region of the brain. Male rats weighing 300-400 grams were used for all studies. To measure the efflux of dopamine in the NAc-sh an in vivo microdialysis method was utilized in free-moving rats. This method allows the sampling of extracellular cerebrospinal fluid (CSF) from specific brain regions of interest and measurement of neurotransmitter concentrations following the analysis of sampled dialysate with HPLC-EC.
Each rat underwent surgical implantation of microdialysis guide cannula (CMA 12, CMA Microdialysis) to facilitate the insertion of the microdialysis probe later on. Rats were anesthetized with a mixture of ketamine/xylazine (80/6 mg/kg IP) and placed in a stereotaxic apparatus. […] Guide cannula were capped with dummy probes until microdialysis probe insertion. On the day prior to experimentation (3-4 days post-surgery), animals were weighed to determine appropriate dose for test articles. A microdialysis probe (CMA 12, 2 mm membrane, CMA microdialysis) was then inserted through the guide cannula. […] Each sample was analyzed via HPLC-EC to determine neurotransmitter concentration of dopamine based upon a six-point standard curve.

[5] = 50 mg dose of naltrexone; cited from earlier work

T1 sequence (P35372 whole entry): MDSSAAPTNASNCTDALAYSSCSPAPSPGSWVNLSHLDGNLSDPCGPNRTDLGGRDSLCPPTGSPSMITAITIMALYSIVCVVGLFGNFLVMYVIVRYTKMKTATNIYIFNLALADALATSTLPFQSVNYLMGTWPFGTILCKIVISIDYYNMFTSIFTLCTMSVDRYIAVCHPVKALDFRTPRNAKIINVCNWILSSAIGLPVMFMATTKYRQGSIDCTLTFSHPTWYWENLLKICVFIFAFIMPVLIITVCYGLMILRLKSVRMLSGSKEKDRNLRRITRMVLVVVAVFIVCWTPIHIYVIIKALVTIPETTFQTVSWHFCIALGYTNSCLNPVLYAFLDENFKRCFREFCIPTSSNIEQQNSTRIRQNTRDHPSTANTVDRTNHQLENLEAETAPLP

Structure (SMILES)	Cmax [1] [ng/mL]	Cmax ([1]; other: sublingual) [nM]	Buprenorphine effect on 5-HIAA [2]	Buprenorphine effect on NAc-sh dopamine [2]	Cmax ([3]; 0.3 mg/kg) [ng/mL]	Cmax ([3]; 1 mg/kg) [ng/mL]	IC50 (human μ opioid receptor) [nM]	Imax (human μ opioid receptor) [%]	Cmax ([3]; 0.03 mg/kg) [ng/mL]	Cmax ([3]; 0.1 mg/kg) [ng/mL]	NAc-sh dopamine efflux induced by buprenorphine [4]	Cmax [5]
NC(=O)c1ccc2c(c1O)[C@]13CCN(CC4CC4)[C@H](C2)[C@]1(O)CCC(=O)C3 [Compound-1]	25.8	69.6	complete attenuation of buprenorphine effects	complete attenuation of buprenorphine effects	11.8	75.5	0.9	>95				
C=C1CC[C@@]2(O)[C@H]3Cc4ccc(C(N)=O)c(O)c4[C@@]2(CCN3CC2CC2)C1 [Compound-10]					29.5		0.23		2.24	18.1		
C=C1CC[C@@]2(O)[C@H]3Cc4ccc(O)c5c4[C@@]2(CCN3CC2CC2)[C@H]1O5 [Nalmefene, nalmefene]					25.6	162				14.1	more potent	
O=C1CC[C@@]2(O)[C@H]3Cc4ccc(O)c5c4[C@@]2(CCN3CC2CC2)[C@H]1O5 [Naltrexone, naltrexone]					76.9	169				19.3		approximately 10 ng/mL
